In US20120053148A1, “INHIBITORS OF HEPATITIS C VIRUS” (GILEAD SCIENCES, INC., priority 2010, published 2012):

Tested on: HCV Replicon IB
Assay: HCV replicon assay in Huh-7 cells, genotype 1b (Rluc luciferase readout)
Assay type: cell-based, hepatitis C virus
Conditions: Hepatitis C virus, 72 h; 10 uM; 1b-Rluc replicon, Huh-7 cells, 3 days; read-out: Inhibition @ 10 uM in 1b-Rluc

Compared with Nc1cc(C(=O)NCc2ccccn2)nc2c(OC(F)(F)F)cc(C3CC3)cc12 [Compound 235], O=C(NCc1ccccn1)c1cc(Cl)c2cc(OC(F)(F)F)cc(Br)c2n1 [Compound 236] is lower in inhibition at 10 µM: 100% for the first, 86.4% for the second.

First: C#Cc1cc(OC(F)(F)F)cc2c(O)cc(C(=O)NCc3ccccn3)nc12 [Compound 237]
Second: C#Cc1cc(OC(F)(F)F)cc2c(Cl)cc(C(=O)NCc3ccccn3)nc12 [Compound 238]
The inhibition at 10 µM of the first is higher: 21.7% for the first, 9.91% for the second.

Compared with O=C(NCc1ccccn1)c1cc(O)c2cc(OC(F)(F)F)cc(-c3cccc4[nH]ncc34)c2n1 [Compound 239], O=C(NCc1ccccn1)c1cc(Cl)c2cc(OC(F)(F)F)cc(/C=C/c3ccccc3)c2n1 [Compound 240] is lower in inhibition at 10 µM: 49.3% for the first, 42.2% for the second.

Compared with O=C(NCc1ccccn1)c1cc(Cl)c2cc(OC(F)(F)F)cc(C(=O)O)c2n1 [Compound 241], Cc1cc(-c2nnc(NCc3ccccn3)o2)nc2c(C(F)(F)F)cc(C3CC3)cc12 [Compound 254] is higher in inhibition at 10 µM: 7.94% for the first, 99.7% for the second.

Going from Cc1cc(-c2nnc(Nc3ccccc3)o2)nc2c(C(F)(F)F)cc(C3CC3)cc12 [Compound 242] to Cc1cc(-c2nnc(Nc3ccccc3)[nH]2)nc2c(C(F)(F)F)cc(C3CC3)cc12 [Compound 272], the inhibition at 10 µM falls from 100% to 93.6%.

First: Cc1cc(-c2nnc(N)o2)nc2c(C(F)(F)F)cc(C3CC3)cc12 [Compound 243]
Second: Cc1cc(-c2nnc(NCCO)o2)nc2c(C(F)(F)F)cc(C3CC3)cc12 [Compound 255]
The inhibition at 10 µM of the first is lower: 88.4% for the first, 99.4% for the second.

CCCCNc1nnc(-c2cc(C)c3cc(C4CC4)cc(C(F)(F)F)c3n2)o1 [Compound 244] and Cc1cc(-c2nnc(NCCCO)o2)nc2c(C(F)(F)F)cc(C3CC3)cc12 [Compound 249] are the same in inhibition at 10 µM: 100% for the first, 100% for the second.

COCCCNc1nnc(-c2cc(C)c3cc(C4CC4)cc(C(F)(F)F)c3n2)o1 [Compound 245] and Cc1cc(-c2nnc(NCCCCO)o2)nc2c(C(F)(F)F)cc(C3CC3)cc12 [Compound 258] are the same in inhibition at 10 µM: 100% for the first, 100% for the second.

Compared with Cc1cc(-c2nnc(NCC3OCCO3)o2)nc2c(C(F)(F)F)cc(C3CC3)cc12 [Compound 246], Cc1cc(-c2nnc(NCC3COCCO3)o2)nc2c(C(F)(F)F)cc(C3CC3)cc12 (stereo not drawn) [Compound 250] is lower in inhibition at 10 µM: 100% for the first, 99.9% for the second.

First: Cc1cc(-c2nnc(NCC3(C)OCCO3)o2)nc2c(C(F)(F)F)cc(C3CC3)cc12 [Compound 247]
Second: Cc1cc(-c2nnc(NCC3(C#N)CC3)o2)nc2c(C(F)(F)F)cc(C3CC3)cc12 [Compound 268]
The inhibition at 10 µM of the first is higher: 100% for the first, 99.4% for the second.

Going from Cc1cc(-c2nnc(NCC(=O)N(C)C)o2)nc2c(C(F)(F)F)cc(C3CC3)cc12 [Compound 248] to Cc1cc(-c2nnc(NCC(=O)N(C)C)o2)nc2c(C(C)(C)C)cc(C3CC3)cc12 [Compound 281], the inhibition at 10 µM falls from 99.9% to 99.8%.

First: Cc1cc(-c2nnc(NCCCN3CCOCC3)o2)nc2c(C(F)(F)F)cc(C3CC3)cc12 [Compound 251]
Second: Cc1cc(-c2nnc(NCCCN3CCCCC3)o2)nc2c(C(F)(F)F)cc(C3CC3)cc12 [Compound 256]
The inhibition at 10 µM of the first is lower: 80.9% for the first, 99.4% for the second.

First: Cc1cc(-c2nnc(NCC3COCCN3)o2)nc2c(C(F)(F)F)cc(C3CC3)cc12 (stereo not drawn) [Compound 252]
Second: Cc1cc(-c2nnc(NCC3COCCN3)s2)nc2c(C(F)(F)F)cc(C3CC3)cc12 (stereo not drawn) [Compound 299]
The inhibition at 10 µM of the first is lower: 92.7% for the first, 98% for the second.

Compared with CCOCCOCCOCCCNc1nnc(-c2cc(C)c3cc(C4CC4)cc(C(F)(F)F)c3n2)o1 [Compound 253], CCOCCOCCOCCCNc1nnc(-c2cc(C)c3cc(C4CC4)cc(C(F)(F)F)c3n2)s1 [Compound 293] is higher in inhibition at 10 µM: 80% for the first, 96% for the second.

Compared with Cc1cc(-c2nnc(NCc3ncc[nH]3)o2)nc2c(C(F)(F)F)cc(C3CC3)cc12 [Compound 257], Cc1cc(-c2nnc(NCCS(C)(=O)=O)o2)nc2c(C(F)(F)F)cc(C3CC3)cc12 [Compound 265] is lower in inhibition at 10 µM: 99.7% for the first, 98% for the second.

Compared with Cc1cc(-c2nnc(NCCCCCO)o2)nc2c(C(F)(F)F)cc(C3CC3)cc12 [Compound 259], Cc1cc(-c2nnc(NCCCCO)o2)nc2c(C(C)(C)C)cc(C3CC3)cc12 [Compound 284] is higher in inhibition at 10 µM: 98.4% for the first, 99.9% for the second.

Going from Cc1cc(-c2nnc(NCC(C)(C)CO)o2)nc2c(C(F)(F)F)cc(C3CC3)cc12 [Compound 260] to Cc1cc(-c2nnc(NC(C)(C)CO)o2)nc2c(C(F)(F)F)cc(C3CC3)cc12 [Compound 261], the inhibition at 10 µM rises from 96.7% to 99.2%.

First: CCCC(=O)Nc1nnc(-c2cc(C)c3cc(C4CC4)cc(C(F)(F)F)c3n2)o1 [Compound 262]
Second: Cc1cc(-c2nnc(NCCCS(C)(=O)=O)o2)nc2c(C(F)(F)F)cc(C3CC3)cc12 [Compound 269]
The inhibition at 10 µM of the first is higher: 99.7% for the first, 87.4% for the second.

Going from Cc1cc(-c2nnc(NCC3CCS(=O)(=O)C3)o2)nc2c(C(F)(F)F)cc(C3CC3)cc12 (stereo not drawn) [Compound 266] to Cc1cc(-c2nnc(NCCCS(N)(=O)=O)o2)nc2c(C(F)(F)F)cc(C3CC3)cc12 [Compound 267], the inhibition at 10 µM rises from 90.6% to 97.7%.

First: Cc1cc(-c2nnc(NCCS(=O)(=O)N(C)C)o2)nc2c(C(F)(F)F)cc(C3CC3)cc12 [Compound 270]
Second: Cc1cc(-c2nnc(NCCS(C)(=O)=O)o2)nc2c(C(C)(C)C)cc(C3CC3)cc12 [Compound 285]
The inhibition at 10 µM of the first is lower: 84.7% for the first, 99.6% for the second.

Going from CCCCNc1nnc(-c2cc(C)c3cc(OC)cc(C(F)(F)F)c3n2)o1 [Compound 273] to COc1cc(C(F)(F)F)c2nc(-c3nnc(NCCCO)o3)cc(C)c2c1 [Compound 277], the inhibition at 10 µM falls from 100% to 98.2%.

Going from COCCCNc1nnc(-c2cc(C)c3cc(OC)cc(C(F)(F)F)c3n2)o1 [Compound 274] to COCCNc1nnc(-c2cc(C)c3cc(OC)cc(C(F)(F)F)c3n2)o1 [Compound 275], the inhibition at 10 µM rises from 99.4% to 99.7%.

Going from CCOCCNc1nnc(-c2cc(C)c3cc(OC)cc(C(F)(F)F)c3n2)o1 [Compound 276] to COc1cc(C(F)(F)F)c2nc(-c3nnc(NCC(=O)N(C)C)o3)cc(C)c2c1 [Compound 279], the inhibition at 10 µM rises from 97.6% to 98.4%.

COc1cc(C(F)(F)F)c2nc(-c3nnc(NCC4OCCO4)o3)cc(C)c2c1 [Compound 278] and Cc1cc(-c2nnc(NCC3OCCO3)o2)nc2c(C(F)(F)F)cc(OCC(F)(F)F)cc12 [Compound 280] are the same in inhibition at 10 µM: 99.9% for the first, 99.9% for the second.

Compared with Cc1cc(-c2nnc(NCCCO)o2)nc2c(C(C)(C)C)cc(C3CC3)cc12 [Compound 282], Cc1cc(-c2nnc(NCC3OCCO3)o2)nc2c(C(C)(C)C)cc(C3CC3)cc12 [Compound 283] is higher in inhibition at 10 µM: 99.9% for the first, 100% for the second.

Compared with Cc1cc(-c2nnc(NCCCO)s2)nc2c(C(F)(F)F)cc(C3CC3)cc12 [Compound 286], Cc1cc(-c2nnc(NCCCCCO)s2)nc2c(C(F)(F)F)cc(C3CC3)cc12 [Compound 291] is lower in inhibition at 10 µM: 99.9% for the first, 99.1% for the second.

Cc1cc(-c2nnc(NCCCOP(=O)(O)O)s2)nc2c(C(F)(F)F)cc(C3CC3)cc12 [Compound 287] and COCCCNc1nnc(-c2cc(C)c3cc(C4CC4)cc(C(F)(F)F)c3n2)s1 [Compound 290] are the same in inhibition at 10 µM: 99.9% for the first, 99.9% for the second.

Going from CCCCNc1nnc(-c2cc(C)c3cc(C4CC4)cc(C(F)(F)F)c3n2)s1 [Compound 288] to CNCCCNc1nnc(-c2cc(C)c3cc(C4CC4)cc(C(F)(F)F)c3n2)s1 [Compound 300], the inhibition at 10 µM falls from 100% to 97.9%.

First: Cc1cc(-c2nnc(NS(C)(=O)=O)s2)nc2c(C(F)(F)F)cc(C3CC3)cc12 [Compound 289]
Second: Cc1cc(-c2nnc(NCCCNS(C)(=O)=O)s2)nc2c(C(F)(F)F)cc(C3CC3)cc12 [Compound 296]
The inhibition at 10 µM of the first is higher: 70.7% for the first, 51.3% for the second.

Compared with Cc1cc(-c2nnc(NCCOCCO)s2)nc2c(C(F)(F)F)cc(C3CC3)cc12 [Compound 292], Cc1cc(-c2nnc(NCCC(C)O)s2)nc2c(C(F)(F)F)cc(C3CC3)cc12 (stereo not drawn) [Compound 302] is higher in inhibition at 10 µM: 97.9% for the first, 99.9% for the second.

Compared with Cc1cc(-c2nnc(NCCC3OCCO3)s2)nc2c(C(F)(F)F)cc(C3CC3)cc12 [Compound 294], Cc1cc(-c2nnc(NCC3OCCO3)s2)nc2c(C(F)(F)F)cc(C3CC3)cc12 [Compound 297] is higher in inhibition at 10 µM: 99.9% for the first, 100% for the second.

Going from Cc1cc(-c2nnc(NCCC(C)(C)O)s2)nc2c(C(F)(F)F)cc(C3CC3)cc12 [Compound 295] to Cc1cc(-c2nnc(NCC(C)(C)CO)s2)nc2c(C(F)(F)F)cc(C3CC3)cc12 [Compound 304], the inhibition at 10 µM falls from 98.1% to 96.2%.

Going from Cc1cc(-c2nnc(NCCCN3CCOCC3)s2)nc2c(C(F)(F)F)cc(C3CC3)cc12 [Compound 298] to Cc1cc(-c2nnc(NCC(O)CO)s2)nc2c(C(F)(F)F)cc(C3CC3)cc12 (stereo not drawn) [Compound 301], the inhibition at 10 µM rises from 88% to 99.6%.

Going from Cc1cc(-c2nnc(NC[C@@H](O)CO)s2)nc2c(C(F)(F)F)cc(C3CC3)cc12 [Compound 303] to Cc1cc(-c2nnc(N)s2)nc2c(C(F)(F)F)cc(C3CC3)cc12 [Compound 305], the inhibition at 10 µM falls from 98.2% to 96.6%.

Same assay, conditions: Hepatitis C virus, Huh-7, 72 h, HCV1B replicon, Huh-7 cells, 3 days; read-out: EC50_HCV1B_

Going from Cc1cc(-c2nnc(NCC3(CO)CC3)s2)nc2c(C(F)(F)F)cc(C3CC3)cc12 [Compound 306] to Cc1cc(-c2nnc(NCCO)s2)nc2c(C(F)(F)F)cc(C3CC3)cc12 [Compound 308], the EC50 falls from 1410 nM to 66 nM (21-fold). The second is the more potent here.

Compared with Cc1cc(-c2nnc(NCCCCO)s2)nc2c(C(F)(F)F)cc(C3CC3)cc12 [Compound 307], Cc1cc(-c2nnc(NCCCS(N)(=O)=O)s2)nc2c(C(F)(F)F)cc(C3CC3)cc12 [Compound 309] is 500-fold higher in EC50: 14.1 nM for the first, 7090 nM for the second. The first is the more potent here.

In the case of Cc1cc(-c2nnc(NCC3CC(F)(F)CN3)s2)nc2c(C(F)(F)F)cc(C3CC3)cc12 (stereo not drawn) [Compound 310], the EC50 is reported as 1570 nM.

Same assay, conditions: Hepatitis C virus, Huh-7, 72 h; read-out: Inhibition @ 10 uM in 1b-Rluc

Going from CNC(=O)CNc1nnc(-c2cc(C)c3cc(C4CC4)cc(C(F)(F)F)c3n2)o1 [Compound 264] to Cc1cc(-c2nnc(Nc3cccc(F)c3)o2)nc2c(C(F)(F)F)cc(C3CC3)cc12 [Compound 271], the inhibition at 10 µM rises from 99.8% to 100%.
